Data as given in ChEMBL document CHEMBL4813917, “2-((1-Phenyl-1H-1,2,3-triazol-4-yl)methyl)-2-azabicyclo[3.2.1]octan-3-one derivatives: Simplification and modification of aconitine scaffold for the discovery of novel anticancer agents” (Eur J Med Chem, 2021).
Active and inactive are the calls of the source. The calls are words filed in the database; no cut-off is given here.

Assays:
[1] = test system: SW-620; assay: Inhibition of cell migration in human SW-620 cells at 20 to 80 nM measured after 24 hrs by wound healing assay; assay type: functional, cell-based; settings: dose 20-80 nM
[2] = test system: LoVo; assay: Induction of apoptosis in human LoVo cells assessed as decrease in Bcl-2 levels at 20 to 80 nM measured after 24 hrs by Western blot assay; assay type: functional, cell-based; settings: dose 20-80 nM
[3] = test system: A549; assay: Antiproliferative activity against human A549 cells assessed as inhibition of cell proliferation measured after 24 hrs by MTT assay; assay type: functional, cell-based; settings: A549, 24 h
[4] = test system: LoVo; assay: Induction of apoptosis in human LoVo cells assessed as necrotic cells at 40 nM measured after 24 hrs by Annexin V/PI staining based flow cytometry method (reference value: 1.3%); assay type: functional
[5] = test system: OVCAR-3; assay: Antiproliferative activity against human OVCAR-3 cells assessed as inhibition of cell proliferation measured after 24 hrs by MTT assay; assay type: functional, cell-based; settings: OVCAR-3, 24 h
[6] = Cytotoxicity against human L02 cells assessed as reduction in cell viability measured after 24 hrs by MTT assay; assay type: cell-based
[7] = Cytotoxicity against human NCM460 cells assessed as reduction in cell viability measured after 24 hrs by MTT assay; assay type: cell-based
[8] = test system: LoVo; assay: Induction of apoptosis in human LoVo cells assessed as early apoptotic cells at 20 nM measured after 24 hrs by Annexin V/PI staining based flow cytometry method (reference value: 1.6%); assay type: functional
[9] = test system: SW-620; assay: Induction of apoptosis in human SW-620 cells assessed as late apoptotic cells at 80 nM measured after 24 hrs by Annexin V/PI staining based flow cytometry method (reference value: 1.3%); assay type: functional
[10] = biological target: Heat shock protein HSP 90-alpha (Homo sapiens, UniProt P07900); assay: Inhibition of recombinant human N terminal his-tagged HSP90 alpha (1 to 732 residues) expressed in Escherichia coli measured after 60 mins by Flourescence polarization assay
[11] = test system: LoVo; assay: Induction of apoptosis in human LoVo cells assessed as early apoptotic cells at 40 nM measured after 24 hrs by Annexin V/PI staining based flow cytometry method (reference value: 1.6%); assay type: functional
[12] = test system: SGC-7901; assay: Antiproliferative activity against human SGC-7901 cells assessed as inhibition of cell proliferation measured after 24 hrs by MTT assay; assay type: functional, cell-based; settings: SGC-7901, 24 h
[13] = test system: SW-620; assay: Induction of apoptosis in human SW-620 cells assessed as viable cells at 40 nM measured after 24 hrs by Annexin V/PI staining based flow cytometry method (reference value: 94%); assay type: functional; settings: read-out: Activity
[14] = test system: LoVo; assay: Induction of apoptosis in human LoVo cells assessed as necrotic cells at 20 nM measured after 24 hrs by Annexin V/PI staining based flow cytometry method (reference value: 1.3%); assay type: functional
[15] = test system: SW-620; assay: Induction of apoptosis in human SW-620 cells assessed as decrease in Bcl-2 levels at 20 to 80 nM measured after 24 hrs by Western blot assay; assay type: functional, cell-based; settings: dose 20-80 nM
[16] = test system: LoVo; assay: Induction of apoptosis in human LoVo cells assessed as necrotic cells at 80 nM measured after 24 hrs by Annexin V/PI staining based flow cytometry method (reference value: 1.3%); assay type: functional

## CC1(C)[C@H]2CC[C@]1(C)N(Cc1cn(-c3cccc(Br)c3)nn1)C(=O)C2
[1]
  inhibition: Dose-Dependent Effect
[2]
  Activity: Active
[3]
  IC50: 90 nM
[4]
  Activity: 1.6%
[5]
  IC50: 30 nM
[6]
  CC50 at 24 h: 10500 nM
[7]
  CC50 at 24 h: 14600 nM
[8]
  Activity: 3%
[9]
  Activity: 29.3%
[10]
  IC50: 0.71 nM
[11]
  Activity: 3.2%
[12]
  IC50: 120 nM
[13]
  viability at 0.04 µM: 75.5%
[14]
  Activity: 1.9%
[15]
  Activity: Active
[16]
  Activity: 6%
